ChEMBL document CHEMBL3885881, “DrugMatrix”

Species: Rattus norvegicus
Assay type: toxicity, organism-based, Sprague-Dawley
Conditions: in vivo, po, route oral GAVAGE, […]; for ABSOLUTE EOSINOPHIL / ABSOLUTE LYMPHOCYTE / ABSOLUTE MONOCYTE / ABSOLUTE SEGMENTED NEUTROPHIL / BASOPHIL / EOSINOPHIL / ERYTHROCYTE COUNT / HEMATOCRIT / HEMOGLOBIN / LEUKOCYTE COUNT / LYMPHOCYTE / MEAN CORPUSCULAR HEMOGLOBIN / MEAN CORPUSCULAR HEMOGLOBIN CONCENTRATION / MEAN CORPUSCULAR VOLUME / MONOCYTE / NEUTROPHIL / NUCLEATED RED BLOOD CELLS / PLATELET COUNT: tissue Blood; for ALANINE AMINOTRANSFERASE / ALKALINE PHOSPHATASE / ASPARTATE AMINOTRANSFERASE / BLOOD UREA NITROGEN / CARBON DIOXIDE / CHLORIDE / CHOLESTEROL / CREATINE PHOSPHOKINASE / CREATININE / GLUCOSE / LACTATE DEHYDROGENASE / LIPASE / PHOSPHORUS / POTASSIUM / SODIUM / TOTAL BILIRUBIN / TOTAL PROTEIN / URIC ACID: tissue Plasma
[1] = 0 mg/kg, 6 h, vehicle control, dose level Control, time 0.25 day
[2] = 0 mg/kg, 24 h, vehicle control, dose level Control, time 1 day
[3] = 100 mg/kg, 6 h, dose level Low, time 0.25 day

Description: DrugMatrix - Regimen: Single

With `Cc1ccc(C)c(OCCCC(C)(C)C(=O)O)c1` [GEMFIBROZIL] as the molecule, how does the “ABSOLUTE EOSINOPHIL” value [1] read?
The value was 0 CELLS/uL.

And the “ABSOLUTE LYMPHOCYTE” value [1]?
Its value is 8631 CELLS/uL.

What about the “ABSOLUTE MONOCYTE” value [1] of the same molecule?
The value was 171.17 CELLS/uL.

What about the “ABSOLUTE SEGMENTED NEUTROPHIL” value [1] of the same molecule?
Its value is 1214.5 CELLS/uL.

What about the BASOPHIL [1] of the same molecule?
Its BASOPHIL is 0%.

What about the EOSINOPHIL [1] of the same molecule?
The EOSINOPHIL was 0%.

What about the “ERYTHROCYTE COUNT” value [1] of the same molecule?
The value was 5.42 x10E6/uL.

And the HEMATOCRIT [1]?
Its HEMATOCRIT is 34.7%.

What about the HEMOGLOBIN [1] of the same molecule?
The HEMOGLOBIN was 13.67 G/DL.

And the “LEUKOCYTE COUNT” value [1]?
Its value is 10.02 x10E3/uL.

And the LYMPHOCYTE [1]?
The LYMPHOCYTE was 86.17%.

And the “MEAN CORPUSCULAR HEMOGLOBIN” value [1]?
Its value is 25.27 pg.

What about the “MEAN CORPUSCULAR HEMOGLOBIN CONCENTRATION” value [1] of the same molecule?
Its value is 39.42 G/DL.

What about the “MEAN CORPUSCULAR VOLUME” value [1] of the same molecule?
Its value is 64.12 fL.

What about the MONOCYTE [1] of the same molecule?
The MONOCYTE was 1.67%.

And the NEUTROPHIL [1]?
The NEUTROPHIL was 12.17%.

What about the “NUCLEATED RED BLOOD CELLS” value [1] of the same molecule?
The value was 0 /100WBC.

And the “PLATELET COUNT” value [1]?
The value was 1050 x10E3/uL.

What about the “ALANINE AMINOTRANSFERASE” value [1] of the same molecule?
The value was 61 u/L.

What about the “ALKALINE PHOSPHATASE” value [1] of the same molecule?
The value was 312.5 u/L.

What about the “ASPARTATE AMINOTRANSFERASE” value [1] of the same molecule?
Its value is 117.5 u/L.

And the “BLOOD UREA NITROGEN” value [1]?
The value was 8.67 mg/dL.

And the “CARBON DIOXIDE” value [1]?
Its value is 26.33 mmol/L.

And the CHLORIDE [1]?
Its CHLORIDE is 100.5 MEQ/L.

And the CHOLESTEROL [1]?
The CHOLESTEROL was 72 mg/dL.

And the “CREATINE PHOSPHOKINASE” value [1]?
The value was 283.33 u/L.

And the CREATININE [1]?
Its CREATININE is 0.28 mg/dL.

And the GLUCOSE [1]?
The GLUCOSE was 172 mg/dL.

And the “LACTATE DEHYDROGENASE” value [1]?
The value was 95.33 u/L.

What about the LIPASE [1] of the same molecule?
Its LIPASE is 10.17 u/L.

What about the PHOSPHORUS [1] of the same molecule?
Its PHOSPHORUS is 9.9 mg/dL.

And the POTASSIUM [1]?
The POTASSIUM was 5.75 MEQ/L.

What about the SODIUM [1] of the same molecule?
The SODIUM was 142.4 MEQ/L.

What about the “TOTAL BILIRUBIN” value [1] of the same molecule?
Its value is 0.3 mg/dL.

And the “TOTAL PROTEIN” value [1]?
Its value is 5.43 G/DL.

And the “URIC ACID” value [1]?
The value was 0.73 mg/dL.

What about the “ABSOLUTE EOSINOPHIL” value [2] of the same molecule?
The value was 90.83 CELLS/uL.

What about the “ABSOLUTE LYMPHOCYTE” value [2] of the same molecule?
The value was 14725.17 CELLS/uL.

What about the “ABSOLUTE MONOCYTE” value [2] of the same molecule?
The value was 220 CELLS/uL.

What about the “ABSOLUTE SEGMENTED NEUTROPHIL” value [2] of the same molecule?
Its value is 1080.67 CELLS/uL.

And the BASOPHIL [2]?
Its BASOPHIL is 0%.

And the EOSINOPHIL [2]?
Its EOSINOPHIL is 0.67%.

What about the “ERYTHROCYTE COUNT” value [2] of the same molecule?
The value was 5.3 x10E6/uL.

And the HEMATOCRIT [2]?
Its HEMATOCRIT is 33.4%.

And the HEMOGLOBIN [2]?
The HEMOGLOBIN was 13.4 G/DL.

What about the “LEUKOCYTE COUNT” value [2] of the same molecule?
The value was 16.12 x10E3/uL.

What about the LYMPHOCYTE [2] of the same molecule?
Its LYMPHOCYTE is 91.17%.

What about the “MEAN CORPUSCULAR HEMOGLOBIN” value [2] of the same molecule?
Its value is 25.3 pg.

What about the “MEAN CORPUSCULAR HEMOGLOBIN CONCENTRATION” value [2] of the same molecule?
Its value is 40.12 G/DL.

What about the “MEAN CORPUSCULAR VOLUME” value [2] of the same molecule?
The value was 63.05 fL.

And the MONOCYTE [2]?
The MONOCYTE was 1.5%.

What about the NEUTROPHIL [2] of the same molecule?
The NEUTROPHIL was 6.67%.

What about the “NUCLEATED RED BLOOD CELLS” value [2] of the same molecule?
Its value is 0 /100WBC.

And the “PLATELET COUNT” value [2]?
The value was 1062 x10E3/uL.

What about the “ALANINE AMINOTRANSFERASE” value [2] of the same molecule?
Its value is 69 u/L.

And the “ALKALINE PHOSPHATASE” value [2]?
Its value is 269 u/L.

And the “ASPARTATE AMINOTRANSFERASE” value [2]?
Its value is 83.67 u/L.

And the “BLOOD UREA NITROGEN” value [2]?
The value was 14 mg/dL.

And the “CARBON DIOXIDE” value [2]?
The value was 29 mmol/L.

And the CHLORIDE [2]?
Its CHLORIDE is 100.83 MEQ/L.

What about the CHOLESTEROL [2] of the same molecule?
The CHOLESTEROL was 66.67 mg/dL.

And the “CREATINE PHOSPHOKINASE” value [2]?
Its value is 355 u/L.

And the CREATININE [2]?
The CREATININE was 0.18 mg/dL.

And the GLUCOSE [2]?
Its GLUCOSE is 161.33 mg/dL.

What about the “LACTATE DEHYDROGENASE” value [2] of the same molecule?
Its value is 123.33 u/L.

And the LIPASE [2]?
The LIPASE was 10.67 u/L.

What about the PHOSPHORUS [2] of the same molecule?
Its PHOSPHORUS is 8.83 mg/dL.

What about the POTASSIUM [2] of the same molecule?
Its POTASSIUM is 6.06 MEQ/L.

And the SODIUM [2]?
The SODIUM was 142.45 MEQ/L.

And the “TOTAL BILIRUBIN” value [2]?
Its value is 0.2 mg/dL.

What about the “TOTAL PROTEIN” value [2] of the same molecule?
Its value is 5.72 G/DL.

What about the “URIC ACID” value [2] of the same molecule?
Its value is 1.27 mg/dL.

And the “ABSOLUTE EOSINOPHIL” value [3]?
The value was 97 CELLS/uL.

And the “ABSOLUTE LYMPHOCYTE” value [3]?
Its value is 13743.17 CELLS/uL.

And the “ABSOLUTE MONOCYTE” value [3]?
Its value is 354.83 CELLS/uL.

And the “ABSOLUTE SEGMENTED NEUTROPHIL” value [3]?
The value was 1355 CELLS/uL.

What about the BASOPHIL [3] of the same molecule?
Its BASOPHIL is 0%.

What about the EOSINOPHIL [3] of the same molecule?
Its EOSINOPHIL is 0.67%.

And the “ERYTHROCYTE COUNT” value [3]?
Its value is 5.46 x10E6/uL.

What about the HEMATOCRIT [3] of the same molecule?
Its HEMATOCRIT is 35.92%.

And the HEMOGLOBIN [3]?
Its HEMOGLOBIN is 13.93 G/DL.

What about the “LEUKOCYTE COUNT” value [3] of the same molecule?
The value was 15.55 x10E3/uL.

What about the LYMPHOCYTE [3] of the same molecule?
Its LYMPHOCYTE is 88.33%.

And the “MEAN CORPUSCULAR HEMOGLOBIN” value [3]?
The value was 25.62 pg.

What about the “MEAN CORPUSCULAR HEMOGLOBIN CONCENTRATION” value [3] of the same molecule?
The value was 38.85 G/DL.

What about the “MEAN CORPUSCULAR VOLUME” value [3] of the same molecule?
The value was 65.98 fL.

And the MONOCYTE [3]?
Its MONOCYTE is 2.17%.

And the NEUTROPHIL [3]?
The NEUTROPHIL was 8.83%.

What about the “NUCLEATED RED BLOOD CELLS” value [3] of the same molecule?
The value was 0 /100WBC.

What about the “PLATELET COUNT” value [3] of the same molecule?
Its value is 1082.83 x10E3/uL.

What about the “ALANINE AMINOTRANSFERASE” value [3] of the same molecule?
The value was 47.5 u/L.

And the “ALKALINE PHOSPHATASE” value [3]?
Its value is 284.67 u/L.

What about the “ASPARTATE AMINOTRANSFERASE” value [3] of the same molecule?
The value was 80.83 u/L.

And the “BLOOD UREA NITROGEN” value [3]?
The value was 8 mg/dL.

And the “CARBON DIOXIDE” value [3]?
Its value is 26.67 mmol/L.

What about the CHLORIDE [3] of the same molecule?
The CHLORIDE was 100.17 MEQ/L.

And the CHOLESTEROL [3]?
Its CHOLESTEROL is 76 mg/dL.

What about the “CREATINE PHOSPHOKINASE” value [3] of the same molecule?
The value was 275.33 u/L.

And the CREATININE [3]?
The CREATININE was 0.13 mg/dL.

What about the GLUCOSE [3] of the same molecule?
Its GLUCOSE is 141.33 mg/dL.

What about the “LACTATE DEHYDROGENASE” value [3] of the same molecule?
Its value is 112.33 u/L.

And the LIPASE [3]?
Its LIPASE is 11 u/L.

What about the PHOSPHORUS [3] of the same molecule?
The PHOSPHORUS was 11.7 mg/dL.

And the POTASSIUM [3]?
The POTASSIUM was 6.32 MEQ/L.

And the SODIUM [3]?
Its SODIUM is 141.92 MEQ/L.

And the “TOTAL BILIRUBIN” value [3]?
The value was 0.37 mg/dL.

And the “TOTAL PROTEIN” value [3]?
The value was 5.85 G/DL.

What about the “URIC ACID” value [3] of the same molecule?
Its value is 1.2 mg/dL.
